Laboratory results published in patent US20130261178A1, “PHENOXYPROPANOL DERIVATIVES AND THEIR USE IN TREATING CARDIAC AND CARDIOVASCULAR DISEASES” (priority 2010, published 2013).
Structures can show the parent of a compound that is named as a salt.

How the values were obtained:
[1] = molecular target: beta1-adrenoceptor (Homo sapiens, UniProt P08588); experiment: 3H-CGP12177 whole-cell binding, CHO cells expressing human beta1-adrenoceptor; set-up: expressed in transfected cells; host or cells: CHO cells; conditions: 3H-CGP 12177 whole cell binding, mean ± s.e.mean; for Kd: log KD, read-out: Beta 1 Log KD (converted)
beta1-adrenoceptor, sequence (P08588 whole entry): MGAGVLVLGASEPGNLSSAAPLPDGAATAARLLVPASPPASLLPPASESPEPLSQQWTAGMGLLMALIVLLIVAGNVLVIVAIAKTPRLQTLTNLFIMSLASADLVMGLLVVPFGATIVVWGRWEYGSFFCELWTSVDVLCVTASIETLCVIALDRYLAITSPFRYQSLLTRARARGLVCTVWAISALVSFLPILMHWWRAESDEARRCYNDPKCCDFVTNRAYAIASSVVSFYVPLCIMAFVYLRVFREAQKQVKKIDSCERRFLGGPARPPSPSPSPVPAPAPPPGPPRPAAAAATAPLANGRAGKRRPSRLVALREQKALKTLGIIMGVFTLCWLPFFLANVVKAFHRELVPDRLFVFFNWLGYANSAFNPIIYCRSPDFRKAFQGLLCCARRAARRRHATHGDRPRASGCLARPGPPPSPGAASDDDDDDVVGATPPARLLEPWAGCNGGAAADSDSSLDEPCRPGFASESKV
From the text: (§1) The selectivity of a ligand is given by the ratio of beta-1 to beta-2 KD.

[2] = molecular target: T1, human beta2-adrenoceptor (Homo sapiens, UniProt P07550); experiment: 3H-CGP12177 whole-cell binding, CHO cells expressing human beta2-adrenoceptor; conditions: 3H-CGP 12177 whole cell binding, mean ± s.e.mean; for Kd: log KD, read-out: Beta 2 Log KD (converted)
T1 construct: expressed in transfected cells; host or cells: CHO cells
T1 sequence (P07550 whole entry): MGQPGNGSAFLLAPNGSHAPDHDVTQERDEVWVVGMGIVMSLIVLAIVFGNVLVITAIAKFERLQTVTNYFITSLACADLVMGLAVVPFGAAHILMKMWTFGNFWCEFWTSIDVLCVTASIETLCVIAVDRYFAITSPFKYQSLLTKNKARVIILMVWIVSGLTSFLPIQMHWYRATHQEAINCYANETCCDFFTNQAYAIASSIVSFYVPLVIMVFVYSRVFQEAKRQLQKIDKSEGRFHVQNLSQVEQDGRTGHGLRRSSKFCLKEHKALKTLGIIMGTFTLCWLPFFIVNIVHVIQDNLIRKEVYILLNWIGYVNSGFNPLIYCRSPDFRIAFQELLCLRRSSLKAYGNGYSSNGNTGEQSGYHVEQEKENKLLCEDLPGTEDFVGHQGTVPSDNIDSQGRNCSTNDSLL
From the text: as §1

| SMILES | melting point [°C] | Kd [1] [nM] | Kd [2] [nM] | Beta 1 Log KD [1] | Beta 2 Log KD [2] |
| --- | --- | --- | --- | --- | --- |
| O=C(NCCNCC(O)COc1ccc(OCCOCC2CC2)cc1)Nc1ccc(OCc2ccccc2)cc1 (stereo not drawn) (hydrate or solvate) [45a] | 131 to 133 |  |  |  |  |
| OC(CNCCOc1cccc(Cl)c1)COc1ccc(OCCOC2CCCC2)cc1 (stereo not drawn) (hydrate or solvate) [65a] | 73.5 |  |  |  |  |
| OC(CNCCOc1ccc(-c2ccccc2)cc1)COc1ccc(OCCOC2CCCC2)cc1 (stereo not drawn) (hydrate or solvate) [65d] | 154 to 155 |  |  |  |  |
| Oc1ccc(OCCNCC(O)COc2ccc(OCCOC3CCCC3)cc2)cc1 (stereo not drawn) (hydrate or solvate) [65e] | 101 to 103 |  |  |  |  |
| Oc1ccc(OCCCNCC(O)COc2ccc(OCCOC3CCCC3)cc2)cc1 (stereo not drawn) (hydrate or solvate) [65f] | 136 |  |  |  |  |
| CCOCCOc1ccc(OCC(O)CNCCNC(=O)Nc2ccc(OCc3ccccc3)cc2)cc1 (stereo not drawn) [45d] |  | 91.2 |  |  |  |
| CCOCCOc1ccc(OCC(O)CNCCNC(=O)Nc2ccc(O)cc2)cc1 (stereo not drawn) [46d] | 96 to 98 | 83.2 | > 100000 |  |  |
| CC(C)OCCOc1ccc(OCC(O)CNCCNC(=O)Nc2cccc(Cl)c2)cc1 (stereo not drawn) [46k, 1-(2-(3-(4-(2-(Isopropyloxy)ethoxy)phenoxy)-2-hydroxypropylamino)ethyl)-3-(3-chlorophenyl)urea] |  | 21.4 | 5130 |  |  |
| CC(C)OCCOc1ccc(OCC(O)CNCCNC(=O)Nc2ccc(O)cc2)cc1 (stereo not drawn) [46l, 1-(2-(3-(4-(2-(Isopropyloxy)ethoxy)phenoxy)-2-hydroxypropylamino)ethyl)-3-(4-hydroxyphenyl)urea] |  | 58.9 | 15500 |  |  |
| CCCOCCOc1ccc(OCC(O)CNCCNC(=O)Nc2cccc(Cl)c2)cc1 (stereo not drawn) [46m, 1-(2-(3-(4-(2-(Propyloxy)ethoxy)phenoxy)-2-hydroxypropylamino)ethyl)-3-(3-chlorophenyl)urea] |  | 16.2 | 3720 |  |  |
| CCCOCCOc1ccc(OCC(O)CNCCNC(=O)Nc2ccc(O)cc2)cc1 (stereo not drawn) [46n, 1-(2-(3-(4-(2-(Propyloxy)ethoxy)phenoxy)-2-hydroxypropylamino)ethyl)-3-(4-hydroxyphenyl)urea] |  | 37.2 | 13500 |  |  |
| O=C(NCCNCC(O)COc1ccc(OCCOC2CC2)cc1)Nc1cccc(Cl)c1 (stereo not drawn) [46o, 1-(3-Chlorophenyl)-3-(2-(3-(4-(2-cyclopropoxyethoxy)phenoxy)-2-hydroxypropylamino)ethyl)urea] |  | 13.8 | 2950 |  |  |
| O=C(NCCNCC(O)COc1ccc(OCCOC2CC2)cc1)Nc1ccc(O)cc1 (stereo not drawn) [46p, 1-(2-(3-(4-(2-Cyclopropoxyethoxy)phenoxy)-2-hydroxypropylamino)ethyl)-3-(4-hydroxyphenyl)urea] |  | 63.1 | 25700 |  |  |
| O=C(NCCNCC(O)COc1ccc(OCCOC2CCCC2)cc1)Nc1cccc(C(=O)O)c1 (stereo not drawn) [47aa, 3-(3-(2-(3-(4-(2-(Cyclopentyloxy)ethoxy)phenoxy)-2-hydroxypropylamino)ethyl)ureido)benzoic acid hydrochloride] |  | 77.6 | 43650 ± 400 |  |  |
| O=C(NCCNCC(O)COc1ccc(OCCOC2CCCC2)cc1)Nc1ccc(C(=O)O)cc1 (stereo not drawn) [47bb, 4-(3-(2-(3-(4-(2-(Cyclopentyloxy)ethoxy)phenoxy)-2-hydroxypropylamino)ethyl)ureido)benzoic acid hydrochloride] |  | 105 | 43700 ± 701 |  |  |
| O=C(NCCNCC(O)COc1ccc(OCCOC2CCCC2)cc1)Nc1ccc([N+](=O)[O-])cc1 (stereo not drawn) [47w, 1-(2-(3-(4-(2-(Cyclopentyloxy)ethoxy)phenoxy)-2-hydroxypropylamino)ethyl)-3-(4-nitrophenyl)urea] |  | 18.6 | 1780 |  |  |
| O=C(NCCNCC(O)COc1ccc(OCCOC2CCCC2)cc1)Nc1ccc(OCCF)cc1 (stereo not drawn) [47x, 1-(2-(3-(4-(2-(Cyclopentyloxy)ethoxy)phenoxy)-2-hydroxypropylamino)ethyl)-3-(4-(2-fluoroethoxy)phenyl)urea] |  | 17.8 | 1820 |  |  |
| COC(=O)c1cccc(NC(=O)NCCNCC(O)COc2ccc(OCCOC3CCCC3)cc2)c1 (stereo not drawn) [47y, Methyl 3-(3-(2-(3-(4-(2-(cyclopentyloxy)ethoxy)phenoxy)-2-hydroxypropylamino)ethyl)ureido)benzoate] |  | 12.3 | 1100 |  |  |
| COC(=O)c1ccc(NC(=O)NCCNCC(O)COc2ccc(OCCOC3CCCC3)cc2)cc1 (stereo not drawn) [47z, Methyl 4-(3-(2-(3-(4-(2-(cyclopentyloxy)ethoxy)phenoxy)-2-hydroxypropylamino)ethyl)ureido)benzoate] |  | 43.7 | 2040 |  |  |
| COc1ccc(NC(=O)NCCNCC(O)COc2ccc(OCCOC3CCCC3)cc2)cc1Cl (stereo not drawn) [54b, 1-(3-Chloro-4-methoxyphenyl)-3-(2-(3-(4-(2-(cyclopentyloxy)ethoxy)phenoxy)-2-hydroxypropylamino)ethyl)urea] |  | 19.5 | 1510 |  |  |
| O=C(NCCNCC(O)COc1ccc(OCCOC2CCCC2)cc1)Nc1ccc(O)c(Cl)c1 (stereo not drawn) [54c, 1-(3-Chloro-4-hydroxyphenyl)-3-(2-(3-(4-(2-(cyclopentyloxy)ethoxy)phenoxy)-2-hydroxypropylamino)ethyl)urea] |  | 7.24 | 1020 |  |  |
| Nc1ccccc1NC(=O)NCCNCC(O)COc1ccc(OCCOC2CCCC2)cc1 (stereo not drawn) [60a] |  | 75.9 | 2190 |  |  |
| Nc1cccc(NC(=O)NCCNCC(O)COc2ccc(OCCOC3CCCC3)cc2)c1 (stereo not drawn) [60b] |  | 20 | 4170 |  |  |
| Nc1ccc(NC(=O)NCCNCC(O)COc2ccc(OCCOC3CCCC3)cc2)cc1 (stereo not drawn) [60c] |  | 29.5 | 3630 |  |  |
| O=C(NCCNCC(O)COc1ccc(OCCOC2CCCC2)cc1)c1ccccc1 (stereo not drawn) [62a] | 149 to 152 | 69.2 | 1150 |  |  |

| SMILES | melting point [°C] | Kd [1] [nM] | Kd [2] [nM] | Beta 1 Log KD [1] | Beta 2 Log KD [2] |
| --- | --- | --- | --- | --- | --- |
| Nc1ccccc1C(=O)NCCNCC(O)COc1ccc(OCCOC2CCCC2)cc1 (stereo not drawn) [62b] | 107 to 109 | 17.8 | 309 |  |  |
| Nc1cccc(C(=O)NCCNCC(O)COc2ccc(OCCOC3CCCC3)cc2)c1 (stereo not drawn) [62c] | 105 to 107.5 | 174 | 4470 |  |  |
| Nc1ccc(C(=O)NCCNCC(O)COc2ccc(OCCOC3CCCC3)cc2)cc1 (stereo not drawn) [62d] | 67 to 69 | 13.8 | 5500 |  |  |
| CC(=O)Oc1ccc(C(=O)NCCNCC(O)COc2ccc(OCCOC3CCCC3)cc2)cc1 (stereo not drawn) [62e, 4-(2-(3-(4-(2-(Cyclopentyloxy)ethoxy)phenoxy)-2-hydroxypropylamino)ethylcarbamoyl)phenyl acetate] |  |  |  | −8.42 ± 0.02 | −6.27 ± 0.03 |
| COc1cc(C(=O)NCCNCC(O)COc2ccc(OCCOC3CCCC3)cc2)ccc1O (stereo not drawn) [62f] |  | 4.9 | 1410 |  |  |
| O=C(Cc1ccccc1F)NCCNCC(O)COc1ccc(OCCOC2CCCC2)cc1 (stereo not drawn) [62g] | 122 to 124 | 2.4 | 97.7 |  |  |
| O=C(Cc1cccc(F)c1)NCCNCC(O)COc1ccc(OCCOC2CCCC2)cc1 (stereo not drawn) [62h] | 116.5 to 118 | 6.76 | 110 |  |  |
| Cc1cccc(CC(=O)NCCNCC(O)COc2ccc(OCCOC3CCCC3)cc2)c1 (stereo not drawn) [62q] |  | 26.9 | 302 |  |  |
| COc1ccc(CC(=O)NCCNCC(O)COc2ccc(OCCOC3CCCC3)cc2)cc1 (stereo not drawn) [62t] |  | 9.77 | 91.2 |  |  |
| O=C(Cc1ccccc1O)NCCNCC(O)COc1ccc(OCCOC2CCCC2)cc1 (stereo not drawn) [62u] |  | 19.1 | 138 |  |  |
| CC(=O)Oc1ccc(CC(=O)NCCNCC(O)COc2ccc(OCCOC3CCCC3)cc2)cc1 (stereo not drawn) [62w, 4-(2-(2-(3-(4-(2-(Cyclopentyloxy)ethoxy)phenoxy)-2-hydroxypropylamino)ethylamino)-2-oxoethyl)phenyl acetate] |  |  |  | −8.09 ± 0.03 | −6.59 ± 0.02 |
| OC(CNCCOc1cccc(Cl)c1)COc1ccc(OCCOC2CCCC2)cc1 (stereo not drawn) [65a] |  | 74.1 | 776 |  |  |
| OC(CNCCOc1ccccc1-c1ccccc1)COc1ccc(OCCOC2CCCC2)cc1 (stereo not drawn) [65c] |  | 107 | 741 |  |  |
| OC(CNCCOc1ccc(-c2ccccc2)cc1)COc1ccc(OCCOC2CCCC2)cc1 (stereo not drawn) [65d] |  | 398 | 79400 |  |  |
| Oc1ccc(OCCNCC(O)COc2ccc(OCCOC3CCCC3)cc2)cc1 (stereo not drawn) [65e] |  | 5.75 | 204 |  |  |
| Oc1ccc(OCCCNCC(O)COc2ccc(OCCOC3CCCC3)cc2)cc1 (stereo not drawn) [65f] |  | 34.7 | 794 |  |  |
| NC(=O)c1ccccc1OCCNCC(O)COc1ccc(OCCOC2CCCC2)cc1 (stereo not drawn) [67a] |  | 49 | 1050 |  |  |
| NC(=O)c1cccc(OCCNCC(O)COc2ccc(OCCOC3CCCC3)cc2)c1 (stereo not drawn) [67b] |  | 18.2 | 1000 |  |  |
| NC(=O)c1ccc(OCCNCC(O)COc2ccc(OCCOC3CCCC3)cc2)cc1 (stereo not drawn) [67c] |  | 3.31 | 851 |  |  |
| OC(CNCCOc1ccc(F)cc1)COc1ccc(OCCOC2CCCC2)cc1 (stereo not drawn) [67d] |  | 9.33 | 1020 |  |  |
| COc1ccc(OCCNCC(O)COc2ccc(OCCOC3CCCC3)cc2)cc1 (stereo not drawn) [67e] |  | 8.91 | 794 |  |  |
| O=C(NCCNC[C@@H](O)COc1ccc(OCCOC2CCCC2)cc1)Nc1cccc(Cl)c1 [(R)-47l, (R)-1-(2-(3-(4-(2-(Cyclopentyloxy)ethoxy)phenoxy)-2-hydroxypropylamino)ethyl)-3-(3-chlorophenyl)urea] |  | 186 | 5890 |  |  |
| O=C(NCCNC[C@H](O)COc1ccc(OCCOC2CCCC2)cc1)Nc1cccc(Cl)c1 [(S)-47l, (S)-1-(2-(3-(4-(2-(Cyclopentyloxy)ethoxy)phenoxy)-2-hydroxypropylamino)ethyl)-3-(3-chlorophenyl)urea] |  | 2.82 | 1150 |  |  |
| NC(=O)c1cc(OCCNCC(O)COc2ccc(OCCOC3CCCC3)cc2)ccc1O (stereo not drawn) [compound 72, 5-(2-(3-(4-(2-(Cyclopentyloxy)ethoxy)phenoxy)-2-hydroxypropylamino)ethoxy)-2-hydroxybenzamide] |  | 0.776 | 25.1 |  |  |
